Test results as given in patent US20260345596A1, “TREATMENT OF LOCALLY ADVANCED OR METASTATIC UROTHELIAL CARCINOMA WITH ERDAFINITIB” (priority 2023, published 2026).

Experiment: Study BLC3001 (NCT03390504, THOR) Cohort 1: safety, adverse events, laboratory abnormalities and exposure
Conditions: for Central serous retinopathy / Chorioretinopathy / Detachment of macular retinal pigment epithelium / Detachment of retinal pigment epithelium / Eye disorders (excluding central serous retinopathy) / Macular detachment / Nail disorders / Retinopathy / Skin disorders / Subretinal fluid: adverse events of interest; for Hematuria / Hyponatremia / Urinary tract infection: serious adverse events, any cause

## COc1cc(OC)cc(N(CCNC(C)C)c2ccc3ncc(-c4cnn(C)c4)nc3c2)c1 [Erdafitinib, N-(3,5-dimethoxyphenyl)-N′-(1-methylethyl)-N-[3-(1-methyl-1H-pyrazol-4-yl)quinoxalin-6-yl]ethane-1,2-diamine]
5 of 7 ongoing
  Ongoing central serous retinopathy events of grade 1: 71%
16 of 23 patients, any grade
  Central serous retinopathy events resolved by clinical cutoff: 70%
Grade 1
  Central serous retinopathy: 12 (8.9) no. (%)
  Chorioretinopathy: 5 (3.7) no. (%)
  Detachment of macular retinal pigment epithelium: 0 no. (%)
  Detachment of retinal pigment epithelium: 3 (2.2) no. (%)
  Eye disorders (excluding central serous retinopathy): 37 (27.4) no. (%)
  Macular detachment: 2 (1.5) no. (%)
  Nail disorders: 25 (18.5) no. (%)
  Retinopathy: 0 no. (%)
  Skin disorders: 27 (20) no. (%)
  Subretinal fluid: 4 (3.0) no. (%)
  Hematuria: 0 no. (%)
  Hyponatremia: 0 no. (%)
  Urinary tract infection: 0 no. (%)
Grade 1, treatment-emergent
  Alanine aminotransferase increased: 28 (20.7) no. (%)
  Alopecia: 29 (21.5) no. (%)
  Anemia: 10 (7.4) no. (%)
  Aspartate aminotransferase increased: 21 (15.6) no. (%)
  Asthenia: 6 (4.4) no. (%)
  Constipation: 24 (17.8) no. (%)
  Decreased appetite: 18 (13.3) no. (%)
  Diarrhea: 49 (36.3) no. (%)
  Dry eye: 20 (14.8) no. (%)
  Dry mouth: 45 (33.3) no. (%)
  Dry skin: 23 (17.0) no. (%)
  Dysgeusia: 28 (20.7) no. (%)
  Fatigue: 12 (8.9) no. (%)
  Hyperphosphatemia: 70 (51.9) no. (%)
  Nausea: 10 (7.4) no. (%)
  Neutropenia: 0 no. (%)
  Onycholysis: 9 (6.7) no. (%)
  Onychomadesis: 9 (6.7) no. (%)
  Palmar-plantar erythrodysesthesia syndrome: 6 (4.4) no. (%)
  Stomatitis: 22 (16.3) no. (%)
  Weight decreased: 12 (8.9) no. (%)
Grade 1, treatment-related
  Alanine aminotransferase increased: 18 (13.3) no. (%)
  Alopecia: 27 (20.0) no. (%)
  Anemia: 8 (5.9) no. (%)
  Aspartate aminotransferase increased: 18 (13.3) no. (%)
  Asthenia: 4 (3.0) no. (%)
  Constipation: 8 (5.9) no. (%)
  Decreased appetite: 15 (11.1) no. (%)
  Diarrhea: 43 (31.9) no. (%)
  Dry eye: 19 (14.1) no. (%)
  Dry mouth: 44 (32.6) no. (%)
  Dry skin: 22 (16.3) no. (%)
  Dysgeusia: 25 (18.5) no. (%)
  Fatigue: 12 (8.9) no. (%)
  Hyperphosphatemia: 70 (51.9) no. (%)
  Nausea: 6 (4.4) no. (%)
  Neutropenia: 0 no. (%)
  Onycholysis: 9 (6.7) no. (%)
  Onychomadesis: 8 (5.9) no. (%)
  Palmar-plantar erythrodysesthesia syndrome: 6 (4.4) no. (%)
  Stomatitis: 20 (14.8) no. (%)
Grade 2
  Central serous retinopathy: 8 (5.9) no. (%)
  Chorioretinopathy: 3 (2.2) no. (%)
  Detachment of macular retinal pigment epithelium: 0 no. (%)
  Detachment of retinal pigment epithelium: 2 (1.5) no. (%)
  Eye disorders (excluding central serous retinopathy): 17 (12.6) no. (%)
  Macular detachment: 0 no. (%)
  Nail disorders: 50 (37.0) no. (%)
  Retinopathy: 2 (1.5) no. (%)
  Skin disorders: 31 (23.0) no. (%)
  Subretinal fluid: 1 (0.7) no. (%)
  Hematuria: 2 (1.5) no. (%)
  Hyponatremia: 0 no. (%)
  Urinary tract infection: 0 no. (%)
Grade 2, treatment-emergent
  Alanine aminotransferase increased: 8 (5.9) no. (%)
  Alopecia: 4 (3.0) no. (%)
  Aspartate aminotransferase increased: 5 (3.7) no. (%)
  Asthenia: 12 (8.9) no. (%)
  Constipation: 12 (8.9) no. (%)
  Decreased appetite: 14 (10.4) no. (%)
  Diarrhea: 31 (23.0) no. (%)
  Dry eye: 3 (2.2) no. (%)
  Dry mouth: 8 (5.9) no. (%)
  Dry skin: 6 (4.4) no. (%)
  Dysgeusia: 8 (5.9) no. (%)
  Fatigue: 8 (5.9) no. (%)
  Hyperphosphatemia: 31 (23.0) no. (%)
  Nausea: 8 (5.9) no. (%)
  Neutropenia: 0 no. (%)
  Onycholysis: 14 (10.4) no. (%)
  Onychomadesis: 17 (12.6) no. (%)
  Palmar-plantar erythrodysesthesia syndrome: 22 (16.3) no. (%)
  Stomatitis: 32 (23.7) no. (%)
  Weight decreased: 15 (11.1) no. (%)
Grade 2, treatment-related
  Alanine aminotransferase increased: 7 (5.2) no. (%)
  Alopecia: 4 (3.0) no. (%)
  Anemia: 4 (3.0) no. (%)
  Aspartate aminotransferase increased: 5 (3.7) no. (%)
  Asthenia: 6 (4.4) no. (%)
  Constipation: 4 (3.0) no. (%)
  Decreased appetite: 10 (7.4) no. (%)
  Diarrhea: 27 (20.0) no. (%)
  Dry eye: 3 (2.2) no. (%)
  Dry mouth: 8 (5.9) no. (%)
  Dry skin: 6 (4.4) no. (%)
  Dysgeusia: 8 (5.9) no. (%)
  Fatigue: 6 (4.4) no. (%)
  Hyperphosphatemia: 29 (21.5) no. (%)
  Nausea: 7 (5.2) no. (%)
  Neutropenia: 0 no. (%)
  Onycholysis: 14 (10.4) no. (%)
  Onychomadesis: 17 (12.6) no. (%)
  Palmar-plantar erythrodysesthesia syndrome: 22 (16.3) no. (%)
  Stomatitis: 31 (23.0) no. (%)
Grade ≥3
  Central serous retinopathy: 3 (2.2) no. (%)
  Chorioretinopathy: 0 no. (%)
  Detachment of macular retinal pigment epithelium: 1 (0.7) no. (%)
  Detachment of retinal pigment epithelium: 2 (1.5) no. (%)
  Eye disorders (excluding central serous retinopathy): 3 (2.2) no. (%)
  Macular detachment: 0 no. (%)
  Nail disorders: 15 (11.1) no. (%)
  Retinopathy: 0 no. (%)
  Skin disorders: 16 (11.9) no. (%)
  Subretinal fluid: 0 no. (%)
  Hematuria: 3 (2.2) no. (%)
  Hyponatremia: 3 (2.2) no. (%)
  Urinary tract infection: 6 (4.4) no. (%)
Grade ≥3, treatment-emergent
  Alanine aminotransferase increased: 4 (3.0) no. (%)
  Alopecia: 1 (0.7) no. (%)
  Anemia: 10 (7.4) no. (%)
  Aspartate aminotransferase increased: 3 (2.2) no. (%)
  Asthenia: 2 (1.5) no. (%)
  Constipation: 0 no. (%)
  Decreased appetite: 4 (3.0) no. (%)
  Diarrhea: 4 (3.0) no. (%)
  Dry eye: 0 no. (%)
  Dry mouth: 0 no. (%)
  Dry skin: 2 (1.5) no. (%)
  Dysgeusia: 1 (0.7) no. (%)
  Fatigue: 0 no. (%)
  Hyperphosphatemia: 7 (5.2) no. (%)
  Nausea: 2 (1.5) no. (%)
  Neutropenia: 0 no. (%)
  Onycholysis: 8 (5.9) no. (%)
  Onychomadesis: 2 (1.5) no. (%)
  Palmar-plantar erythrodysesthesia syndrome: 13 (9.6) no. (%)
  Stomatitis: 11 (8.1) no. (%)
  Weight decreased: 3 (2.2) no. (%)
Grade ≥3, treatment-related
  Alanine aminotransferase increased: 4 (3.0) no. (%)
  Alopecia: 1 (0.7) no. (%)
  Anemia: 4 (3.0) no. (%)
